In data set [1] the test system is rat cortical synaptosomes. Briefly: glutamate-induced 45Ca2+ uptake into rat cortical synaptosomes (P2-fraction). Format: cell-based. To be noted: for ^45Ca^2+ uptake (% vs. control) / activity at 100 µM: 5 min; for ^45Ca^2+ uptake (% vs. control): 100 µM; for IC50 / activity at 100 µM: Rattus norvegicus, glutamate-stimulated; for IC50: concentration at which 50% inhibition of calcium uptake takes place, four different concentrations; for activity at 100 µM: compound at 100 µM, synaptosomes of newborn Wistar rats, 5 minutes at 37°C, control = 100%, read-out: ^45Ca^2+ uptake (% vs. control). The text has this:
Neuroprotective action of the synthesized compounds was studied in P2-fraction of the rat brain cortex synaptosomes as an in vitro convenient model for evaluation of the ability of various compounds to influence calcium uptake into the nerve endings. In the present invention, the applicant used the method of detecting the uptake of ^45Ca^2+ into rat cortical synaptosomes when stimulated with glutamic acid.
Synaptosomes were obtained from the cerebral cortex of newborn Wistar rats (9-10 days) according to Hayosh's standard procedure [Hajos F.// Brain Res., 1975, Vol.93, No 3, pp. 485-489]. The brain was homogenized (glass-teflon) in 10 volumes of 0.32 M chilled sucrose (900 rpm). The homogenate was centrifuged for 10 minutes at 1500 g. The resulting supernatant was centrifuged for 20 minutes at 10000 g. To accumulate the radioactive label, the P2-synaptosomal fraction was suspended in incubation buffer A (132 mM NaCl, 5 mM KCl, 5 mM HEPES, 10 mM glucose, pH 7.4 (protein concentration of 1.5-2 mg/ml)). The final concentration of Ca^2+ was 1.25 mM (1.4 µCi/ml). […] glutamate was used to stimulate the uptake of ^45Ca^2+ in synaptosomes. After 5 minutes of the incubation with glutamate at 37°C, the uptake of ^45Ca^2+ was stopped by filtration through GF/B filters (Whatman, England), washing three times with cold buffer B (145 mM KCl, 10 mM Tris, 5.4 mM Trilon B, pH 7.4) [L.N. Petrova, S.O. Bachurin // Bull. Exp. Biol. Med., 2006., Vol. 142, No 7, pp.51-54]. The samples were analyzed by liquid scintillation beta analyzer (Russia). All tests were performed in three parallel replications in 2-3 independent experiments. The amount of ^45Ca^2+ uptaced into synaptosomes was determined by the difference in the content of the label in the glutamate-induced uptake into synaptosomes and uptake into synaptosomes without agonist, and expressed as percentages of the control (control = 100%).
Specific uptake of ^45Ca^2+ was calculated according to the following formula: K(43/21) = [(Ca4-Ca3)/(Ca2-Ca1)]⋅100%, [formula] wherein Ca1 is uptake of ^45Ca^2+ in the control (without glutamate and a test compound), Ca2 is uptake of ^45Ca^2+ in the presence of glutamate, Ca3 is uptake of ^45Ca^2+ in the presence of a test compound (without glutamate), Ca4 is uptake of ^45Ca^2+ in the presence of glutamate and a test compound. Statistical analysis was performed according to Student's test.
Testing of the compounds was performed at a concentration of 100 µM. Compounds 1-9 which have an inhibitory effect on the ^45Ca^2+ uptake into rat cortical synaptosomes were examined in detail at four different concentrations to determine the IC50 value (concentration of a compound at which 50% inhibition of calcium uptake takes place).

The nature of data set [2]: acute toxicity (LD50) according to the standard method. Conditions: in vivo.

In general, IC50 refers to the concentration that inhibits the measured activity by half. In general, LD50 refers to the dose at which mortality reaches 50%. A high value points to lower toxicity. As to `CCCCN(CCCC)C(=O)CC(C(=O)N(CCCC)CCCC)P(=O)(c1ccccc1)c1ccccc1` (centres unmarked) [Compound 1, N^1,N^1,N^4,N^4-tetrabutyldiamide of 2-(diphenylphosphinoyl)succinic acid], in data set [1], the “^45Ca^2+ uptake (% vs. control)” value amounted to 0% and the IC50 is 14.1 µM. The compound also returned a 50% lethal dose (LD50) in data set [2] greater than 100 mg/kg.

Regarding `CCCCN(CCCC)C(=O)CC(C(=O)N(CCCC)CCCC)P(=O)(c1ccccc1C)c1ccccc1C` (centres unmarked) [Compound 2], in data set [1], the “^45Ca^2+ uptake (% vs. control)” value was determined as 6.6±3.3% and the IC50 was found to be 9.3 µM. For the same compound, the median lethal dose (LD50) in data set [2] was greater than 100 mg/kg.

Turning to `CCCCN(CCCC)C(=O)CC(C(=O)N(CCCC)CCCC)P(=O)(c1cc(C)ccc1C)c1cc(C)ccc1C` (centres unmarked) [Compound 3, N^1,N^1,N^4,N^4-tetrabutyldiamide of 2-[bis(2,5-dimethylphenyl)-phosphinoyl]succinic acid], in data set [1], the activity at 100 µM is 7.7 ± 6.4% and the IC50 came out at 18.6 µM. The same compound showed a 50% lethal dose (LD50) in data set [2] greater than 100 mg/kg.

As for `CCCCN(CCCC)C(=O)CC(C(=O)N(CCCC)CCCC)P(=O)(c1ccc(N(C)C)cc1)c1ccc(N(C)C)cc1` (centres unmarked) [Compound 4, N^1,N^1,N^4,N^4-tetrabutyldiamide of 2-[bis(4-dimethylaminophenyl)-phosphinoyl]succinic acid], in data set [1], the activity at 100 µM turned out to be 0% and the concentration for half-maximal inhibition (IC50) worked out at 7.9 µM. For the same compound, in data set [2], the LD50 is greater than 100 mg/kg.

With `CCCCN(CCCC)C(=O)CC(C(=O)N(CCCC)CCCC)P(=O)(c1ccc(Cl)cc1)c1ccc(Cl)cc1` (centres unmarked) [Compound 5, N^1,N^1,N^4,N^4-tetrabutyldiamide of 2-[bis(4-chlorophenyl)-phosphinoyl]succinic acid], in data set [1], the activity at 100 µM came out at 11.7 ± 7% and the half-inhibitory concentration (IC50) came out at 4.8 µM. The compound further returned an LD50 in data set [2] greater than 100 mg/kg.

For the compound `CCCCN(CCCC)C(=O)CC(C(=O)N(CCCC)CCCC)P(=O)(c1ccc(OC)cc1)c1ccc(OC)cc1` (centres unmarked) [Compound 6, N^1,N^1,N^4,N^4-tetrabutyldiamide of 2-[bis(4-methoxyphenyl)-phosphinoyl]succinic acid], in data set [1], the activity at 100 µM is 7.2 ± 1.3% and the half-inhibitory concentration (IC50) worked out at 17 µM. Also, in data set [2], the LD50 is greater than 100 mg/kg.

As to `CCCCN(CCCC)C(=O)CC(C(=O)N(CCCC)CCCC)P(=O)(CCCC)CCCC` (centres unmarked) [Compound 7, N^1,N^1,N^4,N^4-tetrabutyldiamide of 2-(di-n-butylphosphinoyl)succinic acid], in data set [1], the activity at 100 µM worked out at 0% and the IC50 stood at 44.7 µM. Further, the median lethal dose (LD50) in data set [2] was greater than 100 mg/kg.

As to `CCCCN(CCCC)C(=O)CC(CP(=O)(c1ccc(OC)cc1)c1ccc(OC)cc1)C(=O)N(CCCC)CCCC` (centres unmarked) [Compound 8, N^1,N^1,N^4,N^4-tetrabutyldiamide of 2-[bis(4-methoxyphenyl)-phosphinoylmethyl]succinic acid], in data set [1], the “^45Ca^2+ uptake (% vs. control)” value was determined as 0% and the half-inhibitory concentration (IC50) stood at 15.5 µM. In data set [2], this compound had an LD50 greater than 100 mg/kg.

Regarding `CCCCN(CCCC)C(=O)CC(CP(=O)(c1cc(C)ccc1C)c1cc(C)ccc1C)C(=O)N(CCCC)CCCC` (centres unmarked) [Compound 9, N^1,N^1,N^4,N^4-tetrabutyldiamide of 2-[bis(2,5-dimethylphenyl)-phosphinoylmethyl]succinic acid], in data set [1], the activity at 100 µM was found to be 4.9 ± 4.9% and the IC50 turned out to be 5.1 µM. In data set [2], this compound had an LD50 greater than 100 mg/kg.

Consider `CCN(CC)C(=O)CC(CP(=O)(c1ccccc1)c1ccccc1)C(=O)N(CC)CC` (centres unmarked) [Compound 10, N^1,N^1,N^4,N^4-tetraethyldiamide of 2-(diphenylphosphinoylmetyl)succinic acid], for which the activity at 100 µM in data set [1] is 63.8 ± 12%. The compound further came in with an LD50 in data set [2] greater than 100 mg/kg.

As to `CN(C)c1ccc(P(=O)(c2ccc(N(C)C)cc2)C(CC(=O)O)C(=O)O)cc1` (centres unmarked) [Compound 11, 2-[bis-(4-Dimethylaminophenyl)-phosphinoyl]succinic acid, reference compound], in data set [1], the activity at 100 µM is 117 ± 3.9%.

Take `Cc1ccc(C)c(P(=O)(c2cc(C)ccc2C)C(CC(=O)O)C(=O)O)c1` (centres unmarked) [Compound 12, 2-[bis-(2,5-Dimethylphenyl)-phosphinoyl]succinic acid, reference compound]: in data set [1], the activity at 100 µM was found to be 97.9 ± 11.4%.

For the compound `CCP(=O)(CC)C(CC(=O)O)C(=O)O` (centres unmarked) [Compound 13, 2-(Diethylphosphinoyl)succinic acid, reference compound], the activity at 100 µM in data set [1] was determined as 120 ± 17.3%.

On to `CCCCN(CCCC)C(=O)CP(=O)(c1ccccc1)c1ccccc1` [Compound 16, N,N-Dibutylamide of 2-(diphenylphosphinoyl)acetic acid, reference compound], for which, in data set [1], the activity at 100 µM amounted to 96.2 ± 2.9%.

For `CCN(CC)C(=O)CP(=O)(c1ccccc1)c1ccccc1` [Compound 17, N,N-Diethylamide of 2-(diphenylphosphinoyl)acetic acid, reference compound], the activity at 100 µM in data set [1] was 95.4%.

As for `CCN(CC)CC(C(=O)N(CC)CC)P(=O)(c1ccccc1)c1ccccc1` (centres unmarked) [Compound 18, N,N-Diethylamide of 2-(diphenylphosphinoyl)-3-(diethylamino)propionic acid, reference compound], the activity at 100 µM in data set [1] was found to be 97.4%.
